Experimental data reported in US20070114186A1 (priority 2003, published 2007).

System: pseudomonas & other pathogens

In the case of `[Zn]` [zinc], the “kills pseudomonas & other pathogens” value is reported as “kills pseudomonas & other pathogens”.
